Test results published in DBAASP.
Values after ≈ are worked out from the molar mass of the structure shown. Values joined by “and” are separate entries in the source; they are usually repeats but may differ in a detail not shown here. Equal entries are not always repeated.

Assays:
Assay in all cases: ≥ marks a high value that may be exact or a test limit, other limits are often not marked, values filed in µg/mL are converted to µM
[1] = tested on: Bacillus subtilis CMCC 63501
Candida albicans CA2761 = tested on: Candida albicans CA2761
[2] = tested on: Candida albicans CGMCC 2.2086
[3] = tested on: Candida krusei CGMCC 2.1857
[4] = tested on: Candida tropicalis CGMCC 2.1975
[5] = tested on: Escherichia coli ATCC 25922
Escherichia coli EC183 = tested on: Escherichia coli EC183
Escherichia coli UB1005 = tested on: Escherichia coli UB1005
[6] = tested on: Salmonella enterica subsp. enterica serovar Typhimurium C77-31
[7] = tested on: Staphylococcus aureus ATCC 25923
[8] = tested on: Staphylococcus aureus ATCC 29213
[9] = tested on: Staphylococcus epidermidis ATCC 12228
[10] = tested on: Enterococcus faecalis ATCC 29212
[11] = tested on: Pseudomonas aeruginosa ATCC 27853
[12] = tested on: Salmonella enterica subsp. enterica serovar Pullorum C79-13
[13] = tested on: Staphylococcus aureus ATCC 43300
Bacillus subtilis = tested on: Bacillus subtilis
Candida albicans SC5314 = tested on: Candida albicans SC5314
[14] = tested on: Staphylococcus aureus ATCC 2592
Alternaria alternata = tested on: Alternaria alternata
Botrytis cinerea = tested on: Botrytis cinerea
Cladosporium herbarum = tested on: Cladosporium herbarum
[15] = tested on: Clavibacter michiganensis subsp. michiganensis DSM 46294
Fusarium solani = tested on: Fusarium solani
[16] = tested on: Pectobacterium carotovorum subsp. carotovorum DSM 30168
[17] = tested on: Pseudomonas corrugata DSM 7228
[18] = tested on: Pseudomonas syringae pv. syringae DSM 10604
[19] = tested on: Pseudomonas syringae pv. tomato DC3000
[20] = tested on: Xanthomonas vesicatoria DSM 50861
[21] = tested on: Acinetobacter baumannii ATCC 19606
[22] = tested on: Acinetobacter baumannii ATCC BAA-1605
[23] = tested on: Acinetobacter baumannii ATCC BAA-747
[24] = tested on: Acinetobacter baumannii NR-9667
[25] = tested on: Pseudomonas aeruginosa 1109
[26] = tested on: Pseudomonas aeruginosa ATCC 10145
[27] = tested on: Pseudomonas aeruginosa ATCC 15442
[28] = tested on: Pseudomonas aeruginosa ATCC 25619
[29] = tested on: Pseudomonas aeruginosa ATCC 35032
[30] = tested on: Pseudomonas aeruginosa ATCC 9027
[31] = tested on: Pseudomonas aeruginosa ATCC 9721
[32] = tested on: Pseudomonas aeruginosa ATCC BAA-1744
[33] = tested on: Pseudomonas aeruginosa PAO1

SMILES	MIC [1]	MIC (Candida albicans CA2761)	MIC [2]	MIC [3]	MIC [4]	MIC [5]	MIC (Escherichia coli EC183)	MIC (Escherichia coli UB1005)	MIC [6]	MIC [7]	MIC [8]	MIC [9]	MIC [11]	further results
CC[C@H](C)[C@H](NC(=O)[C@H](CCCN=C(N)N)NC(=O)[C@H](CCCCN)NC(=O)[C@H](Cc1ccccc1)NC(=O)[C@H](CCC(=O)O)NC(=O)[C@H](CCCCN)NC(=O)CN)C(=O)N[C@H](C(=O)N[C@@H](CCCCN)C(=O)N[C@@H](Cc1c[nH]c2ccccc12)C(=O)N1CCC[C@H]1C(=O)N[C@@H](Cc1c[nH]c2ccccc12)C(=O)N[C@@H](Cc1c[nH]c2ccccc12)C(=O)N1CCC[C@H]1C(=O)N[C@@H](Cc1c[nH]c2ccccc12)C(=O)N[C@@H](CCCN=C(N)N)C(=O)N[C@@H](CCCN=C(N)N)C(N)=O)C(C)C [GKEFKRIVKWPWWPWRR]	4 µM (≈ 9.42 µg/mL)	–	–	–	–	–	–	2 µM (≈ 4.71 µg/mL)	4 µM (≈ 9.42 µg/mL)	–	4 µM and 8 µM	8 µM (≈ 18.8 µg/mL)	16 µM (≈ 37.7 µg/mL)	MIC [10]: 4 µM (≈ 9.42 µg/mL); MIC [12]: 2 µM (≈ 4.71 µg/mL); MIC [13]: 2 µM (≈ 4.71 µg/mL)
CC(C)[C@H](N)C(=O)N[C@@H](CCCCN)C(=O)N[C@@H](CCCN=C(N)N)C(=O)N[C@@H](Cc1c[nH]c2ccccc12)C(=O)N[C@@H](CCCCN)C(=O)N[C@@H](CCCCN)C(=O)N[C@@H](Cc1c[nH]c2ccccc12)C(=O)N[C@@H](Cc1ccccc1)C(=O)N[C@@H](CCCN=C(N)N)C(=O)N[C@@H](CCCCN)C(=O)N[C@@H](Cc1c[nH]c2ccccc12)C(=O)N[C@@H](CCCCN)C(=O)N[C@@H](CCCCN)C(=O)N[C@@H](Cc1c[nH]c2ccccc12)C(=O)N[C@H](C(N)=O)C(C)C [VKRWKKWFRKWKKWV]	–	–	–	–	–	2.1 µM (≈ 4.6 µg/mL)	–	–	–	–	–	–	–	MIC (Bacillus subtilis): 4.3 µM (≈ 9.41 µg/mL); MIC (Candida albicans SC5314): 4.3 µM (≈ 9.41 µg/mL); MIC [14]: 8.5 µM (≈ 18.6 µg/mL)
C[C@H](NC(=O)[C@H](Cc1cnc[nH]1)NC(=O)[C@H](CO)NC(=O)[C@@H](N)CC(=O)O)C(=O)N[C@@H](CCCCN)C(=O)N[C@@H](CCCN=C(N)N)C(=O)N[C@@H](Cc1cnc[nH]1)C(=O)N[C@@H](Cc1cnc[nH]1)C(=O)NCC(=O)N[C@H](C(=O)N[C@@H](CCCCN)C(=O)N[C@@H](CCCN=C(N)N)C(=O)N[C@@H](CCCCN)C(=O)N[C@@H](Cc1ccccc1)C(=O)N[C@@H](Cc1cnc[nH]1)C(=O)N[C@@H](CCC(=O)O)C(=O)N[C@@H](CCCCN)C(=O)N[C@@H](Cc1cnc[nH]1)C(=O)N[C@@H](Cc1cnc[nH]1)C(=O)N[C@@H](CO)C(=O)N[C@@H](Cc1cnc[nH]1)C(=O)N[C@@H](CCCN=C(N)N)C(=O)NCC(=O)N[C@H](C(=O)O)[C@@H](C)O)[C@@H](C)O [DSHAKRHHGTKRKFHEKHHSHRGT]	–	–	–	–	–	–	–	–	–	–	–	–	–	MIC (Alternaria alternata): 22 µM (≈ 64 µg/mL); MIC (Botrytis cinerea): 22 µM (≈ 64 µg/mL); MIC (Cladosporium herbarum): 22 µM (≈ 64 µg/mL); MIC [15]: 22 µM (≈ 64 µg/mL); MIC (Fusarium solani): 5.49 µM (≈ 16 µg/mL); MIC [16]: 22 µM (≈ 64 µg/mL); MIC [17]: 22 µM (≈ 64 µg/mL); MIC [18]: 22 µM (≈ 64 µg/mL); MIC [19]: 22 µM (≈ 64 µg/mL); MIC [20]: 22 µM (≈ 64 µg/mL)

Now from value to compound, other results behind:

MIC [1]	MIC (Candida albicans CA2761)	MIC [2]	MIC [3]	MIC [4]	MIC [5]	MIC (Escherichia coli EC183)	MIC (Escherichia coli UB1005)	MIC [6]	MIC [7]	MIC [8]	MIC [9]	MIC [11]	SMILES	further results
1 µM (≈ 2.28 µg/mL)	8 µM (≈ 18.2 µg/mL)	16 µM (≈ 36.5 µg/mL)	4 µM (≈ 9.12 µg/mL)	2 µM (≈ 4.56 µg/mL)	2 µM (≈ 4.56 µg/mL)	1 µM (≈ 2.28 µg/mL)	2 µM (≈ 4.56 µg/mL)	2 µM (≈ 4.56 µg/mL)	8 µM (≈ 18.2 µg/mL)	4 µM (≈ 9.12 µg/mL)	4 µM (≈ 9.12 µg/mL)	–	CC[C@H](C)[C@H](NC(=O)[C@H](Cc1c[nH]c2ccccc12)NC(=O)[C@H](CCCCN)NC(=O)[C@H](CC(C)C)NC(=O)[C@@H](NC(=O)[C@H](CCCCN)NC(=O)CNC(=O)[C@@H](NC(=O)[C@H](CCCCN)NC(=O)[C@H](CCCCN)NC(=O)[C@H](CC(C)C)NC(=O)[C@H](CCCN=C(N)N)NC(=O)[C@H](CCCCN)NC(=O)[C@H](CCCN=C(N)N)NC(=O)[C@@H](NC(=O)[C@H](CCCCN)NC(=O)[C@H](CCCCN)NC(=O)[C@@H](N)CCCN=C(N)N)[C@@H](C)O)[C@@H](C)CC)C(C)C)C(N)=O [RKKTRKRLKKIGKVLKWI]	–
1 µM (≈ 2.7 µg/mL)	8 µM (≈ 21.6 µg/mL)	8 µM (≈ 21.6 µg/mL)	2 µM (≈ 5.41 µg/mL)	1 µM (≈ 2.7 µg/mL)	2 µM (≈ 5.41 µg/mL)	1 µM (≈ 2.7 µg/mL)	2 µM (≈ 5.41 µg/mL)	1 µM (≈ 2.7 µg/mL)	4 µM (≈ 10.8 µg/mL)	4 µM (≈ 10.8 µg/mL)	4 µM (≈ 10.8 µg/mL)	–	CC[C@H](C)[C@H](NC(=O)[C@H](Cc1c[nH]c2ccccc12)NC(=O)[C@H](CCCCN)NC(=O)[C@H](CC(C)C)NC(=O)[C@@H](NC(=O)[C@H](CCCCN)NC(=O)CNC(=O)[C@@H](NC(=O)[C@H](CCCCN)NC(=O)[C@H](CCCCN)NC(=O)[C@H](CC(C)C)NC(=O)[C@H](CCCN=C(N)N)NC(=O)[C@H](CCCCN)NC(=O)[C@H](CCCN=C(N)N)NC(=O)[C@@H](NC(=O)[C@H](CCCCN)NC(=O)[C@H](CCCCN)NC(=O)[C@H](CCCN=C(N)N)NC(=O)[C@H](CC(C)C)NC(=O)[C@H](CCCN=C(N)N)NC(=O)[C@@H](N)CCCN=C(N)N)[C@@H](C)O)[C@@H](C)CC)C(C)C)C(N)=O [RRLRKKTRKRLKKIGKVLKWI]	–
–	–	–	–	–	–	–	–	–	–	–	–	256 µM (≈ 438 µg/mL)	CC[C@H](C)[C@H](NC(=O)[C@H](CCCCN)NC(=O)[C@H](CCCCN)NC(=O)[C@H](Cc1c[nH]c2ccccc12)NC(=O)[C@@H](NC(=O)[C@H](CCCCN)NC(=O)[C@@H](NC(=O)[C@H](CCCN=C(N)N)NC(=O)[C@H](CCCN=C(N)N)NC(=O)[C@H](CCCCN)NC(=O)[C@@H](N)Cc1c[nH]c2ccccc12)[C@@H](C)CC)[C@@H](C)CC)C(=O)N[C@@H](CCCN=C(N)N)C(=O)O [WKRRIKIWKKIR]	MIC [21]: > 256 µM; MIC [22]: ≥ 256 µM; MIC [23]: ≥ 256 µM; MIC [24]: ≥ 256 µM; MIC [25]: ≥ 128 µM; MIC [26]: ≥ 256 µM; MIC [27]: ≥ 256 µM; MIC [28]: ≥ 256 µM; MIC [29]: ≥ 256 µM; MIC [30]: > 256 µM; MIC [31]: ≥ 256 µM; MIC [32]: ≥ 256 µM; MIC [33]: > 256 µM
